Counter-ions that a name gives are not always drawn.
What was measured:
sRAGE binding to S100b = biological target: T1, sRAGE binding to S100b (Homo sapiens, UniProt Q15109); assay: RAGE binding assay (ELISA), S100b as the RAGE ligand; conditions: compounds tested in hydrochloride salt form, concentration at which 50% signal has been inhibited
T1 construct: extracellular domain can be isolated by proteolysis of RAGE to generate soluble RAGE (sRAGE) comprised of the V and C domains
Protocol: (§1) The following assay method may be used to identify compounds of Formula (I) or pharmaceutically acceptable salts thereof which are useful as inhibitors of binding of physiological RAGE ligands, such as S100b and β-amyloid, to RAGE.
(§2) S100b, β-amyloid, or CML (500 ng/100 μL/well) in 100 mM sodium bicarbonate/sodium carbonate buffer (pH 9.8) is loaded onto the wells of a NUNC Maxisorp flat bottom 96-well microtitre plate. The plate is incubated at 4° C. overnight. The wells are aspirated and treated with 50 mM imidazole buffer saline (pH 7.2) (with 5 mM CaCl2/MgCl2) containing 1% bovine serum albumin (BSA) (300 μL/well) for 1 h at RT. The wells are aspirated.
(§3) Test compounds are dissolved in nanopure water (concentration: 10-100 μM). DMSO may be used as co-solvent. 25 μL of test compound solution in 4% DMSO is added, along with 75 μL sRAGE (6 nM FAC) to each well and samples are incubated for 1 h at 37° C. The wells are washed several times with 155 mM NaCl pH 7.2 buffer saline and are soaked for several seconds between each wash.
(§4) Non-radioactive detection is performed by adding:
(§5) 10 μL Biotinylated goat F(ab′)2 Anti-mouse IgG. (8.0×10-4 mg/mL, FAC), 5 μL Alk-phos-Streptavidin (3×10-3 mg/mL FAC), 0.42 μL per 5 mL Monoclonal antibody for sRAGE (FAC 6.0×10-3 mg/mL) to 5 mL 50 mM imidazole buffer saline (pH 7.2) containing 0.2% bovine serum albumin and 5 mM CaCl2. The mixture is incubated for 30 minutes at RT.
(§6) 100 μL of complex is added to each well and incubation is allowed to proceed at rt for 1 h. Wells are washed several times with wash buffer and soaked several seconds between each wash. 100 μL 1 mg/mL (pNPP) in 1 M diethanolamine (pH adjusted to 9.8 with HCl) is added. Color is allowed to develop in the dark for 30 min to 1 h at rt. The reaction is quenched with 10 μL of stop solution (0.5-1.0 N NaOH in 50% ethanol) and the absorbance is measured spectrophotometrically with a microplate reader at 405 nm.
(§7) The IC50 (μM) value in the ELISA assay represents the concentration of compound at which 50% signal has been inhibited.

[1] = biological target: T2, sRAGE binding to β-amyloid (Homo sapiens, UniProt Q15109); assay: RAGE binding assay (ELISA), β-amyloid as the RAGE ligand; conditions: compounds tested in hydrochloride salt form, concentration at which 50% signal has been inhibited
T2 construct: extracellular domain can be isolated by proteolysis of RAGE to generate soluble RAGE (sRAGE) comprised of the V and C domains
Protocol: as §1, §2, §3, §4, §5, §6, §7

T2 sequence (Q15109 23-342 limits assumed): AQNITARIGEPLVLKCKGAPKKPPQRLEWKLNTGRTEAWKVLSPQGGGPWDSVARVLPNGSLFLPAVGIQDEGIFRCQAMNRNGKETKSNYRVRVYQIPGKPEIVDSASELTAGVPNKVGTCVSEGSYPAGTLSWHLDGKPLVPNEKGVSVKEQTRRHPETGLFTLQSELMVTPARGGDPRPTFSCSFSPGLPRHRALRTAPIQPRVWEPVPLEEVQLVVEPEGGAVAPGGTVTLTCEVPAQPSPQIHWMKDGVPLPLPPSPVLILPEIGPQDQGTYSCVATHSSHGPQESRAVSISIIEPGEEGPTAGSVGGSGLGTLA
T1 sequence (Q15109 23-342 limits assumed): as above

Compound | IC50 (sRAGE binding to S100b) [µM] | IC50 [1] [µM]
CN1CCC(Oc2cc(-c3ccc(OC4CCCCC4)cc3)c(C3CC3)nn2)CC1 [Example 59, 4-(4-cyclohexyloxy-phenyl)-3-cyclopropyl-6-(1-methyl-piperidin-4-yloxy)-pyridazine dihydrochloride] | 4.79 | 3.16
CCCCc1nnc(C(=O)N[C@H]2CC[C@@H](N(C)C)CC2)cc1-c1ccc(OC2CCCCC2)cc1 [Example 95, (±)-(cis)-6-Butyl-5-(4-cyclohexyloxy-phenyl)-pyridazine-3-carboxylic acid (4-dimethylamino-cyclohexyl)-amide dihydrochloride] | 0.69 | 1.05
CCCCc1nnc(OCCCN2CCCCC2)cc1-c1ccc(OCc2ccccc2)cc1 [Example 5, 4-(4-Benzyloxy-phenyl)-3-butyl-6-(3-piperidin-1-yl-propoxy)-pyridazine dihydrochloride] | 3.11 | 6.28
CCCc1nnc(OC2CCN(C)CC2)cc1-c1ccc(OCc2ccccc2)cc1 [Example 12, 4-(4-Benzyloxy-phenyl)-6-(1-methyl-piperidin-4-yloxy)-3-propyl-pyridazine dihydrochloride] | 1.19 | 1.54
CCCCc1nnc(O[C@H]2C[C@H]3CC[C@@H](C2)N3C)cc1-c1ccc(OC2CCCCC2)cc1 [Example 27, endo-3-[6-Butyl-5-(4-cyclohexyloxy-phenyl)-pyridazin-3-yloxy]-8-methyl-8-aza-bicyclo[3.2.1]octane dihydrochloride] | 2.69 | 2.52
CCCCc1nnc(C(=O)N[C@H]2CN3CCC2CC3)cc1-c1ccc(OC2CCCCC2)cc1 [Example 86, (R)-6-Butyl-5-(4-cyclohexyloxy-phenyl)-pyridazine-3-carboxylic acid (1-aza-bicyclo[2.2.2]oct-3-yl)-amide dihydrochloride] | 1.92 | 1.02
CCCCc1nnc(OC2CCN(C)CC2CO)cc1-c1ccc(OC2CCCCC2)cc1 (stereo not drawn) [Example 38, {4-[6-Butyl-5-(4-cyclohexyloxy-phenyl)-pyridazin-3-yloxy]-1-methyl-piperidin-3-yl}-methanol dihydrochloride] | 2.62 | 2.47
CCCCc1nnc(C(=O)NCC2CCN(C)CC2)cc1-c1ccc(OCc2ccccc2)cc1 [Example 81, 5-(4-Benzyloxy-phenyl)-6-butyl-pyridazine-3-carboxylic acid (1-methyl-piperidin-4-ylmethyl)-amide dihydrochloride] | 1.82 | 1.54
CCCCc1nnc(OC2CCN(CCC3OCCCO3)CC2)cc1-c1ccc(OC2CCCCC2)cc1 [Example 18, 3-Butyl-4-(4-cyclohexyloxy-phenyl)-6-[1-(2-[1,3]dioxan-2-yl-ethyl)-piperidin-4-yloxy]-pyridazine dihydrochloride] | 0.83 | 0.6
CCCCc1nnc(OCC2CN(C)CCC2(F)F)cc1-c1ccc(OC2CCCCC2)cc1 (stereo not drawn) [Example 39, 3-Butyl-4-(4-cyclohexyloxy-phenyl)-6-(4,4-difluoro-1-methyl-piperidin-3-ylmethoxy)-pyridazine dihydrochloride] | 1.22 | 1.5
CCCCc1nnc(OCCN(CC)CC)cc1-c1ccc(OCc2ccccc2)cc1 [Example 3, {2-[5-(4-Benzyloxy-phenyl)-6-butyl-pyridazin-3-yloxy]-ethyl}-diethyl-amine dihydrochloride] | 2.49 | 2.28
CCCCc1nnc(OC2CCN(C)CC2)cc1-c1ccc(OC2CCCCC2)c(-c2nnn(C)n2)c1 [Example 79, 3-Butyl-4-[4-cyclohexyloxy-3-(2-methyl-2H-tetrazol-5-yl)-phenyl]-6-(1-methyl-piperidin-4-yloxy)-pyridazine dihydrochloride] | 1.47 | 1.49

More lines, in order of falling IC50 (sRAGE binding to S100b), values ahead:

IC50 (sRAGE binding to S100b) [µM] | IC50 [1] [µM] | Compound
4.84 | 3.72 | CCCCc1nnc(OCCCN2CCOCC2)cc1-c1ccc(OCc2ccccc2)cc1 [Example 8, 4-{3-[5-(4-Benzyloxy-phenyl)-6-butyl-pyridazin-3-yloxy]-propyl}-morpholine dihydrochloride]
3.27 | 4.56 | CCCCc1nnc(OC2CCN(C)CC2)cc1-c1ccc(Oc2ccc(C)nn2)cc1 [Example 57, 3-butyl-6-(1-methyl-piperidin-4-yloxy)-4-[4-(6-methyl-pyridazin-3-yloxy)-phenyl]-pyridazine trihydrochloride]
2.98 | 2.18 | CCCCc1c(-c2ccc(OC3CCCCC3)cc2)cc(OC2CCN(C)CC2)n[n+]1[O-] [Example 40, 3-Butyl-4-(4-cyclohexyloxy-phenyl)-6-(1-methyl-piperidin-4-yloxy)-pyridazine 2-oxide hydrochloride]
2.57 | 2.62 | CN1CCC(Oc2cc(-c3ccc(OCc4ccccc4)cc3)c(C(F)(F)F)nn2)CC1 [Example 13, 4-(4-Benzyloxy-phenyl)-6-(1-methyl-piperidin-4-yloxy)-3-trifluoromethyl-pyridazine dihydrochloride]
2.33 | 1.52 | CCCCc1nnc(OC[C@H]2CN(C)C[C@@H]2COC)cc1-c1ccc(OCc2ccccc2)cc1 (racemic) [Example 7, (±)-trans-4-(4-Benzyloxy-phenyl)-3-butyl-6-(4-methoxymethyl-1-methyl-pyrrolidin-3-ylmethoxy)-pyridazine dihydrochloride]
2.19 | 2.85 | CCCCc1nnc(OC2CCN(C)CC2)cc1-c1ccc(OC2CCCCC2)c(N2CCCS2(=O)=O)c1 [Example 75, 3-Butyl-4-[4-cyclohexyloxy-3-(1,1-dioxo-1lambda*6*-isothiazolidin-2-yl)-phenyl]-6-(1-methyl-piperidin-4-yloxy)-pyridazine dihydrochloride]
1.82 | 2.59 | CCCCc1nnc(O[C@H]2CCN(C)C2)cc1-c1ccc(OC2CCCCC2)cc1 [Example 30, 3-Butyl-4-(4-cyclohexyloxy-phenyl)-6-((S)-1-methyl-pyrrolidin-3-yloxy)-pyridazine dihydrochloride]
1.8 | 2.43 | CCCCc1nnc(OC2CCN(C)CC2)cc1-c1ccc(OCC2CCC(C(=O)N(C)C)CC2)cc1 (stereo not drawn) [Example 56, 4-{4-[3-butyl-6-(1-methyl-piperidin-4-yloxy)-pyridazin-4-yl]-phenoxymethyl}-cyclohexanecarboxylic acid dimethylamide dihydrochloride]
1.74 | 1.04 | CCCCc1nnc(OC2CCN(C)CC2)cc1-c1ccc(OC2CCCCC2)c(OC)c1 [Example 73, 3-Butyl-4-(4-cyclohexyloxy-3-methoxy-phenyl)-6-(1-methyl-piperidin-4-yloxy)-pyridazine dihydrochloride]
1.37 | 1.54 | CCCCc1nnc(OC[C@H]2CCN(C)C[C@@H]2O)cc1-c1ccc(OC2CCCCC2)cc1 (racemic) [Example 25, (±)-trans-4-[6-Butyl-5-(4-cyclohexyloxy-phenyl)-pyridazin-3-yloxymethyl]-1-methyl-piperidin-3-ol dihydrochloride]
1.32 | 1.23 | CCCCc1nnc(OCC2CCN(C)CC2)cc1-c1ccc(OCc2ccccc2)cc1 [Example 2, 4-(4-Benzyloxy-phenyl)-3-butyl-6-(1-methyl-piperidin-4-ylmethoxy)-pyridazine]
1.04 | 1.34 | CCCCc1nnc(C(=O)NC[C@H]2CCN(C)C[C@H]2F)cc1-c1ccc(OC2CCCCC2)cc1 (racemic) [Example 110, (±)-cis-6-Butyl-5-(4-cyclohexyloxy-phenyl)-pyridazine-3-carboxylic acid (3-fluoro-1-methyl-piperidin-4-ylmethyl)-amide dihydrochloride]
0.81 | 0.82 | CCCCc1nnc(OC2CCN(CCO)CC2)cc1-c1ccc(OC2CCCCC2)cc1 [Example 17, 2-{4-[6-Butyl-5-(4-cyclohexyloxy-phenyl)-pyridazin-3-yloxy]-piperidin-1-yl}-ethanol dihydrochloride]
0.65 | 0.69 | CCCCc1nnc(OC2CCN(C)CC2)cc1-c1ccc(OCCC2CCCCC2)cc1 [Example 52, 3-butyl-4-[4-(2-cyclohexyl-ethoxy)-phenyl]-6-(1-methyl-piperidin-4-yloxy)-pyridazine dihydrochloride]
0.64 | 0.66 | CCCCc1nnc(OC2CCN(CCC(=O)OCC)CC2)cc1-c1ccc(OC2CCCCC2)cc1 [Example 15, 3-{4-[6-Butyl-5-(4-cyclohexyloxy-phenyl)-pyridazin-3-yloxy]-piperidin-1-yl}-propionic acid ethyl ester dihydrochloride]

— patent US9045461B2, “Phenyl-heteroaryl derivatives and methods of use thereof” (TransTech Pharma, LLC, priority 2010, dated 2015)
